The values below come from US8466193B2, “Selective inhibitors of histone deacetylase” (Pharmacyclics, Inc., priority 2008, dated 2013).

pIC50: −log10 of the molar value. Some results are limits rather than exact numbers.

For series [1], the system named is Jurkat cells. The series can be described thus: Cell proliferation assay, growth inhibition by Alamar Blue. The class given is cell-based. The following applies: Homo sapiens, 72 h, Jurkat cells treated with compound for 3 days. The protocol: Cell lines were obtained from DSMZ (Braunschweig, Germany) or ATCC (Manassas, Va.). Cells were grown in RPMI 1640 with 10% fetal bovine serum in a 5% CO2/air incubator at 37° C. Thapsigargin and BAPTA-AM were from Calbiochem (San Diego, Calif.). 3-((dimethylamino)methyl)-N-(2-(4-(hydroxycarbamoyl)phenoxy)ethyl)benzofuran-2-carboxamide is a broad-spectrum HDAC inhibitor which was synthesized as previously described. Other analogs with varying degrees of specificity towards the HDAC isoforms were synthesized as described herein.
Tumor cell lines and human umbilical vein endothelial cells (HUVEC) were cultured for at least two doubling times, and growth was monitored at the end of compound exposure using an Alamar Blue™ (Biosource, Camarillo, Calif.) fluorometric cell proliferation assay as recommended by the manufacturer. Compounds were assayed in triplicate wells in 96-well plates. The concentration required to inhibit cell growth by 50% (GI50) and 95% confidence intervals were estimated from nonlinear regression using a 4-parameter logistic equation. The effect of HDAC8 selective inhibitor compounds on cell proliferation in Jurkat cells was measured. Apoptosis was measured by Annexin-V flow cytommetry. Growth inhibition was measured by Alamar Blue assay. Cells were treated with compound for 3 days.
For orientation: Resazurin is reduced to fluorescent resorufin, in cell work by metabolically active cells.

Series [2] can be described thus: Pharmacokinetic analysis in male rats, oral gavage. The class given is in vivo. The following applies: CD IGS (Sprague-Dawley derived), rat, plasma, orally at 3 mg/kg, compounds administered in combination. The protocol: This study, performed in male rats with test compounds (Compound 303 and Compound 316), was designed to provide preliminary information on their pharmacokinetics. The test compounds were administered in combination by oral gavage.
The specifications for rats used on this study are as follows: • Strain: CD® IGS rats (Sprague-Dawley derived) • Source: Charles River Laboratories • Surgical modification for oral dosing: One portal vein cannula and one jugular vein cannula • Body weight range at dosing 350 to 375 g
The rats were acclimatized to laboratory conditions for at least 24 hours before dosing. The evening before dosing, food was withheld from the rats and was returned immediately following the 3-hour blood collection time point. Water was provided ad libitum. The rats were housed individually in translucent polycarbonate cages.
Test compounds were prepared as 3.0 mg/ml solutions (1% MC/0.4% Cr EL in WFI).
Rats were administered a single dose of test compound in combination by oral gavage. Dose volumes were adjusted based on body weight data collected immediately prior to dosing.
The dose volume was 1 ml/kg and the nominal dosage was 3 mg/kg.
Blood samples were collected at 5 minutes, 20 minutes, 1 hour, 3 hours, 6 hours, 9 hours, and 24 hours post-dosing from orally dosed rats. The samples were collected into plasma separator Microtainer tubes with anticoagulant (lithium heparin). Plasma samples were prepared by centrifugation (5 min at 5000×g), and at least 100 μL were transferred to storage tubes and frozen on dry ice. Samples were maintained at approximately −75 C until prepared for analysis.
Plasma samples were thawed and 75 uL aliquots were transferred to centrifuge tubes to which 10 μL aliquots of internal standard solution (0.5 μg/mL) were added. The samples were not diluted with blank plasma prior to further processing. Soluble proteins were precipitated by the addition of 300 μL of methanol, followed by centrifugation (20 min at 16,000×g). The samples were evaporated to dryness and reconstituted in 100 μL of water containing 0.2% formic acid and 10% methanol. All samples were loaded onto an autosampler maintained at 6° C. and evaluated for concentrations of test compound using LC-MS/MS. lasma concentration data were evaluated using the computer program WinNonlin (Professional Edition, Pharsight Corporation, version 5.01). […]
Pan HDAC inhibitor 3-((dimethylamino)methyl)-N-(2-(4-(hydroxycarbamoyl)phenoxy)ethyl)benzofuran-2-carboxamide was added to the cassette to serve as a standard since the pharmacokinetics of this compound have been determined previously in rats. The UC's determined for rats administered Compound 303 and Compound 316 orally at 3 mg/kg were 1.42, and 5.36 μg·h/mL, respectively. […]

The target in series [3] is HDAC1 (Homo sapiens, UniProt Q13547). As to the kind of experiment: Histone deacetylase activity, continuous trypsin-coupled assay. The class given is biochemical. The following applies: 15 minutes preincubation; substrate acetyl-Gly-Ala-(N-acetyl-Lys)-AMC. How it is done: (§1) HDAC activity was measured using a continuous trypsin-coupled assay that has been described in detail previously (US 20070281934; Schultz et. al., Biochemistry, 43 (34), 11083-11091, 2004; Kim et al. (2006), Methods Mol. Biol., 325:273-283). For inhibitor characterization, measurements were performed in a reaction volume of 100 μL using 96-well assay plates in a fluorescence plate reader. For each isozyme, the HDAC protein in reaction buffer (50 mM HEPES, 100 mM KCl, 0.001% Tween-20, 5% DMSO, pH 7.4, supplemented with bovine serum albumin at concentrations of 0-0.05%, was mixed with inhibitor at various concentrations and allowed to incubate for 15 minutes. Trypsin was added to a final concentration of 50 nM, and acetyl-Gly-Ala-(N-acetyl-Lys)-AMC was added to a final concentration of 25-100 μM to initiate the reaction. After a 30 minute lag time, the fluorescence was measured over a 30 minute time frame using an excitation wavelength of 355 nm and a detection wavelength of 460 nm. The increase in fluorescence with time was used as the measure of the reaction rate. Inhibition constants Ki(app) were obtained using the program BatchKi (Biokin, Pullman, Wash.).

Series [4] has as its target T1, HDAC10 (Homo sapiens, UniProt Q969S8).
T1 sequence (Q969S8 1-669): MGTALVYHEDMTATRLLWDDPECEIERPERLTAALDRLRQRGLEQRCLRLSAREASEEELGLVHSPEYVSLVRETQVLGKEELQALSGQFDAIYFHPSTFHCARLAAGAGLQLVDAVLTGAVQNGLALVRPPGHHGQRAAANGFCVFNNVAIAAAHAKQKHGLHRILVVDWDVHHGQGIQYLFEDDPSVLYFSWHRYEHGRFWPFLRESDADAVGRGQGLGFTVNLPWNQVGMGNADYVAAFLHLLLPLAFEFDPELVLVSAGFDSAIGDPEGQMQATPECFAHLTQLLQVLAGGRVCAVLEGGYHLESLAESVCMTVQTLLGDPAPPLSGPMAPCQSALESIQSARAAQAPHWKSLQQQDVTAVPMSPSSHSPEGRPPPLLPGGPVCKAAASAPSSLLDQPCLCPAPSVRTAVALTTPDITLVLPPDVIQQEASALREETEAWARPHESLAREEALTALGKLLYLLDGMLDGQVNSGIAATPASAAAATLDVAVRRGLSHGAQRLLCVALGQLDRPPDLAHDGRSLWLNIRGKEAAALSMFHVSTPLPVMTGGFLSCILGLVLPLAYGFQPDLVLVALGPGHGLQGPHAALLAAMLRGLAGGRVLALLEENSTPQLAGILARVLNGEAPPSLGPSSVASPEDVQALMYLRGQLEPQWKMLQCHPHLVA
The description is as above. The class given is biochemical. The following applies: 15 minutes preincubation; substrate acetyl-Gly-Ala-(N-acetyl-Lys)-AMC. The protocol:
as §1

Series [5] has as its target HDAC2 (Homo sapiens, UniProt Q92769). The series is described as above. The class given is biochemical. The following applies: 15 minutes preincubation; substrate acetyl-Gly-Ala-(N-acetyl-Lys)-AMC. How it is done:
as §1

For series [6], the target named is HDAC3 (Homo sapiens, UniProt O15379). Described as above. The class given is biochemical. The following applies: 15 minutes preincubation; substrate acetyl-Gly-Ala-(N-acetyl-Lys)-AMC. The protocol: as §1
Series [7] has as its target T2, HDAC6 (Homo sapiens, UniProt Q9UBN7).
T2 sequence (Q9UBN7 1-1215): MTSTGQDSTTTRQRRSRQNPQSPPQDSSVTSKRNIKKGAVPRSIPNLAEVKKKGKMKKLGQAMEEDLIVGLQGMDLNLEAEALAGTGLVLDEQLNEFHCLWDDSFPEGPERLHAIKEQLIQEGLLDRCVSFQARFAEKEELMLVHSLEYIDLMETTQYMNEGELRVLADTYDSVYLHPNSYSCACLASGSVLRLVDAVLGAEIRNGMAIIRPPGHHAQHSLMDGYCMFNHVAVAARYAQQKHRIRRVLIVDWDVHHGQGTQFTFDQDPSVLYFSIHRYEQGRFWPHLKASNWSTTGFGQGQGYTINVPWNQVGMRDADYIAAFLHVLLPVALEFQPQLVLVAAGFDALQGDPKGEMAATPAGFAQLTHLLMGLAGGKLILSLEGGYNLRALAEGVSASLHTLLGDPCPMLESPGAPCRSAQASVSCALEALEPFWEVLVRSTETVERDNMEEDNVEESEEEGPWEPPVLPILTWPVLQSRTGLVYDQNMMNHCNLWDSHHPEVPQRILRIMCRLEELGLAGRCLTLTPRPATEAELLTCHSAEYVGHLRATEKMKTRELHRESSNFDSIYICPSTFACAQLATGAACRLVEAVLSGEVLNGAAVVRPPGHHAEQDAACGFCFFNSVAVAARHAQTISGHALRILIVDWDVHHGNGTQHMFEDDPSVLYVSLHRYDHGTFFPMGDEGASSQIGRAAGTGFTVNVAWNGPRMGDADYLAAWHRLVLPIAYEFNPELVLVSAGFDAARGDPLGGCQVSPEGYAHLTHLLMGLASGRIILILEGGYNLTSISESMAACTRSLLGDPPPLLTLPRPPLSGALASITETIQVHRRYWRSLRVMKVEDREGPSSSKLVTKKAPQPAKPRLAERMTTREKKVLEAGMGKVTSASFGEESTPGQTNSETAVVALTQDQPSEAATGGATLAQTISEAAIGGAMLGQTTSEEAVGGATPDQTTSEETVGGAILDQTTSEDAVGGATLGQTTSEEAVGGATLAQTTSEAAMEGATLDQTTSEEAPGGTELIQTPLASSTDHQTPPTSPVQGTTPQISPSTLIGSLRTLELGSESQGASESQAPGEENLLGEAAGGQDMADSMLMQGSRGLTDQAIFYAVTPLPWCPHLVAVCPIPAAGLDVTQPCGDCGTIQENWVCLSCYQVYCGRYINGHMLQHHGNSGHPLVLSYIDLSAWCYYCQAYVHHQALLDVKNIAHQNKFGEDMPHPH
The description is as above. The class given is biochemical. The following applies: 15 minutes preincubation; substrate acetyl-Gly-Ala-(N-acetyl-Lys)-AMC. How it is done:
as §1

For series [8], the target named is T3, HDAC8 (Homo sapiens, UniProt Q9BY41).
T3 sequence (Q9BY41 1-377): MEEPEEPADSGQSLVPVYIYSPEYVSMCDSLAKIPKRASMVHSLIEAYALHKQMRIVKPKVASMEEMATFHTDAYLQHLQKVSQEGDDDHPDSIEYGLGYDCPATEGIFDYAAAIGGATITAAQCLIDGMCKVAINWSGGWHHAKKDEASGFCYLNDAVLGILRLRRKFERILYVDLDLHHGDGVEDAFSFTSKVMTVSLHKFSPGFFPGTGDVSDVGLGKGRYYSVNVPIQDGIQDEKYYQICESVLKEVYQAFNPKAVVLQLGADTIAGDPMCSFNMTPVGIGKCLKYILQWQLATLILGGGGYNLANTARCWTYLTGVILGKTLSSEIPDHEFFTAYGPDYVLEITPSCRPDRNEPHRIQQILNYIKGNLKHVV
Described as above. The class given is biochemical. The following applies: 15 minutes preincubation; substrate acetyl-Gly-Ala-(N-acetyl-Lys)-AMC. The protocol: as §1

Chain of HDAC2 (Q92769 whole entry, species assumed): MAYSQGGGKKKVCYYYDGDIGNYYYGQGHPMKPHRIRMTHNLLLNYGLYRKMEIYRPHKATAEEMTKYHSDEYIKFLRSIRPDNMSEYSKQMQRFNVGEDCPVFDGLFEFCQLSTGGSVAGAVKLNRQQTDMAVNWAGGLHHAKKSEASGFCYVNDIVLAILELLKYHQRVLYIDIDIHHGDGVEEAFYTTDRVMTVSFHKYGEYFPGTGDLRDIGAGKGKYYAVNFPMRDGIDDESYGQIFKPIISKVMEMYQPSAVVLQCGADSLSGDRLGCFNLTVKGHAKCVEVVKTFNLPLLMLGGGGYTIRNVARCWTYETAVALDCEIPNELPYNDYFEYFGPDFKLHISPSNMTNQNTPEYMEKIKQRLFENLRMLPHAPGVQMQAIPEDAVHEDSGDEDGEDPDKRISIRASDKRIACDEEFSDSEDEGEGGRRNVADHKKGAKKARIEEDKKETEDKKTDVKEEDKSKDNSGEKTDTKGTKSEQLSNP
Chain of HDAC3 (O15379 whole entry, species assumed): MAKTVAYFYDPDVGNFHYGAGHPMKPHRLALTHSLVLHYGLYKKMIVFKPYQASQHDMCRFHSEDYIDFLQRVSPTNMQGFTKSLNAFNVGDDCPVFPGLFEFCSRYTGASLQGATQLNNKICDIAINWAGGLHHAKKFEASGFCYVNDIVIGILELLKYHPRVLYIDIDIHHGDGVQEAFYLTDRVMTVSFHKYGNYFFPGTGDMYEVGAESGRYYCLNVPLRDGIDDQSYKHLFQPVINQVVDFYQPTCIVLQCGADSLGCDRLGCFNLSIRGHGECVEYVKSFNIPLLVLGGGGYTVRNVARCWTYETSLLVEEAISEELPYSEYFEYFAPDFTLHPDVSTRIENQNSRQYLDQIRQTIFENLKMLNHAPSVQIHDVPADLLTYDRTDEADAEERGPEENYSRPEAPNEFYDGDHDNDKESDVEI
Chain of HDAC3 (Q9Y618 395-489 partner limits assumed, species assumed): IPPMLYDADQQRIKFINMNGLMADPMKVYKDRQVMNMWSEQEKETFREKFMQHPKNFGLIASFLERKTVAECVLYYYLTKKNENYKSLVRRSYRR
Chain of HDAC1 (Q13547 whole entry, species assumed): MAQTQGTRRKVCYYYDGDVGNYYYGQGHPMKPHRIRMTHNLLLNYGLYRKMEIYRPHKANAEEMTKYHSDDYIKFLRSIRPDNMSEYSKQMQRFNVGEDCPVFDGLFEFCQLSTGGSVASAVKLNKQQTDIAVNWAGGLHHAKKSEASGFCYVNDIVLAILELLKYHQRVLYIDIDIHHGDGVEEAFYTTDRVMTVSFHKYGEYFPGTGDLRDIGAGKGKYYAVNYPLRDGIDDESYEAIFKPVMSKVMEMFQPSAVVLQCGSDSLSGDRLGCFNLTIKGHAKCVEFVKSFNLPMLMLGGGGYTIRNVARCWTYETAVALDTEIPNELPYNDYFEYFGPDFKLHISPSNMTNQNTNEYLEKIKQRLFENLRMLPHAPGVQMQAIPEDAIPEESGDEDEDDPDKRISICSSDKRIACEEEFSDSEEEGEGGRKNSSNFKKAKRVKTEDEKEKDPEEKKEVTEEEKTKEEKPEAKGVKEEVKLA

The GI50 is the concentration that inhibits growth by half. A word on the AUC: it is concentration integrated over time. For orientation: Cmax means the highest concentration seen after dosing. In the case of `O=C(NO)c1ccc2ccn(CCCc3ccccc3)c2c1` [Compound 303, N-hydroxy-1-(3-phenyl-propyl)-1H-indole-6-carboxamide], the GI50 in series [1] came out at 3.5 µM. Besides, in series [2], the AUC turned out to be 1420 ng·h/mL and the peak concentration (Cmax) was 310 ng/mL.
As a reminder, the pIC50 is the negative decadic logarithm of the IC50, by convention in mol/L. The low end stands for a high IC50, the high end for a low IC50. On to `O=C(NO)c1ccc2ccn(CCOc3cccc(CN4CCOCC4)c3)c2c1` [Compound 327, N-hydroxy-1-(2-(3-(morpholin-4-ylmethyl)phenoxy)ethyl)-1H-indole-6-carboxamide], for which the negative logarithm of the IC50 (pIC50) is under 5.00 in series [3]; under 5.00 in series [4]; under 5.00 in series [5]; under 5.00 in series [6]; 5.00 to 6.00 in series [7]; over 6.00 in series [8]. The GI50 in series [1] was found to be 4.95 µM.
For `CN(C)Cc1ccc(OCCn2ccc3ccc(C(=O)NO)cc32)cc1` [Compound 325, N-hydroxy-1-(2-(4-(dimethylaminomethyl)phenoxy)ethyl)-1H-indole-6-carboxamide], the pIC50 in series [3] is under 5.00; in series [4], under 5.00; in series [5], under 5.00; in series [6], under 5.00; in series [7], 5.00 to 6.00; in series [8] it was over 6.00. The GI50 in series [1] was 13.4 µM.
For `O=C(NO)c1ccc2ccn(CCOc3ccccc3CN3CCOCC3)c2c1` [Compound 326, N-hydroxy-1-(2-(2-(morpholin-4-ylmethyl)phenoxy)ethyl)-1H-indole-6-carboxamide], the negative-log IC50 (pIC50) in series [3] was under 5.00; in series [4], under 5.00; in series [7], under 5.00; in series [8], over 6.00.
`CN(C)Cc1cccc(OCCn2ccc3ccc(C(=O)NO)cc32)c1` [Compound 324, N-hydroxy-1-(2-(3-(dimethylaminomethyl)phenoxy)ethyl)-1H-indole-6-carboxamide]: the pIC50 in series [3] is under 5.00; in series [4], under 5.00; in series [5], under 5.00; in series [6] it was under 5.00; in series [7], 5.00 to 6.00; in series [8] it was over 6.00. Moreover, the GI50 in series [1] is 7.4 µM.
For `O=C(Cn1ccc2ccc(C(=O)NO)cc21)Nc1ccccc1` [Compound 329, N-hydroxy-1-(2-oxo-2-(phenylamino)ethyl)-1H-indole-6-carboxamide], the pIC50 in series [3] is under 5.00; in series [4], under 5.00; in series [5] it was under 5.00; in series [6] it was under 5.00; in series [7], under 5.00; in series [8], over 6.00. In addition, the concentration for 50% growth inhibition (GI50) in series [1] was 20.7 µM.
